Assay results published in patent US20230085307A1, “PYRIDAZINONE COMPOUND AND HERBICIDE” (NISSAN CHEMICAL CORPORATION, priority 2019, published 2023).

Columns and labels:
Chinese sprangletop = assay: Test Example 3: herbicidal effect by foliage application, Wagner pot (Table 18, symbol D); format: in vivo, chinese sprangletop (Leptochloa chinensis); conditions: for herbicidal effect on D: Chinese sprangletop: amount of applied herbicide 320 g/ha; for herbicidal effect on Chinese sprangletop (D): 320 g/ha
Method in brief: (§1)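 Plants were sown in alluvial soil held under 0.1–0.5 cm standing water and grown 14 days in a greenhouse at 25–30 °C. An emulsifiable formulation, water-diluted to the set dose, was then sprayed onto the foliage, and effects were scored three weeks later using previously defined criteria.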

rice flat sedge = assay: Test Example 3: herbicidal effect by foliage application, Wagner pot (Table 18, symbol E); format: in vivo, rice flat sedge (Cyperus iria); conditions: for herbicidal effect on E: rice flat sedge: amount of applied herbicide 320 g/ha; for herbicidal effect on rice flat sedge (E): 320 g/ha
Method in brief: as §1

oval-leafed pondweed [1] = assay: Test Example 1: herbicidal activity, application before weed generation under submerged conditions (Table 16, symbol C); format: in vivo, oval-leafed pondweed (Monochoria vaginalis); conditions: amount of applied herbicide 320 g/ha
Method in brief: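 Alluvial soil was flooded to 4 cm depth, weed seeds were sown mixed and 2.5-leaf rice seedlings were transplanted. On sowing day, the compound's emulsion, diluted in water to a set dose, was applied to the water surface. Plants grew at 25–30 °C and were scored 0–5 after three weeks.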

southern crabgrass [2] = assay: Test Example 5: herbicidal effect by foliage application, plastic box (Table 20, symbol F); format: in vivo, southern crabgrass (Digitaria ciliaris); conditions: foliage application; for F: southern crabgrass, herbicidal effect (criteria 0-5): AAH 320 g/ha, evaluated three weeks after application; for F: southern crabgrass, herbicidal effect grade: 320 g/ha, three weeks after application
Method in brief: (§2)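 Plants sown in sterilized diluvial soil and grown 14 days in a greenhouse at 25° C to 30° C, then sprayed on the foliage with the compound's emulsion diluted in water to a predetermined herbicide amount. Injury to weeds and crops scored three weeks after application on a visual rating scale.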

barnyard grass = assay: Test Example 5: herbicidal effect by foliage application, plastic box (Table 20, symbol H); format: in vivo, barnyard grass (Echinochloa crus-galli); conditions: foliage application; for H: barnyard grass, herbicidal effect (criteria 0-5): AAH 320 g/ha, evaluated three weeks after application; for H: barnyard grass, herbicidal effect grade: 320 g/ha, three weeks after application
Method in brief: as §2

green foxtail = assay: Test Example 5: herbicidal effect by foliage application, plastic box (Table 20, symbol G); format: in vivo, green foxtail (Setaria viridis); conditions: foliage application; for G: green foxtail, herbicidal effect (criteria 0-5): AAH 320 g/ha, evaluated three weeks after application; for G: green foxtail, herbicidal effect grade: 320 g/ha, three weeks after application
Method in brief: as §2

lambsquarters [3] = assay: Test Example 4: herbicidal effect by soil treatment (Table 19, symbol O); format: in vivo, lambsquarters (Chenopodium album); conditions: amount of applied herbicide 320 g/ha
Method in brief: (§3)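 Seeds were sown in sterilized diluvial soil and covered with about 1.5 cm of soil. An emulsion formulation diluted with water to a predetermined herbicide amount was sprayed evenly onto the soil surface. Plants grew in a greenhouse at 25° C. to 30° C., and the effect was scored three weeks after application using criteria from an earlier test.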

windgrass [4] = assay: Test Example 5: herbicidal effect by foliage application, plastic box (Table 20, symbol L); format: in vivo, windgrass (Apera spica-venti); conditions: foliage application; for L: windgrass, herbicidal effect (criteria 0-5): AAH 320 g/ha, evaluated three weeks after application; for L: windgrass, herbicidal effect grade: 320 g/ha, three weeks after application
Method in brief: as §2

chickweed = assay: Test Example 5: herbicidal effect by foliage application, plastic box (Table 20, symbol P); format: in vivo, common chickweed (Stellaria media); conditions: foliage application; for P: chickweed, herbicidal effect (criteria 0-5): AAH 320 g/ha, evaluated three weeks after application; for P: chickweed, herbicidal effect grade: 320 g/ha, three weeks after application
Method in brief: as §2

southern crabgrass [5] = assay: Test Example 4: herbicidal effect by soil treatment (Table 19, symbol F); format: in vivo, southern crabgrass (Digitaria ciliaris); conditions: amount of applied herbicide 320 g/ha
Method in brief: as §3

oval-leafed pondweed [6] = assay: Test Example 2: herbicidal activity, application during weed generation under submerged conditions (Table 17, symbol C); format: in vivo, oval-leafed pondweed (Monochoria vaginalis); conditions: AAH 320 g/ha; application during weed generation, submerged conditions
Method in brief: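 Effect on each weed is rated three weeks post-treatment, using the same scoring criteria as the preceding test. Plants grow from mixed-sown seed in flooded alluvial soil (4 cm water) at 25° C. to 30° C., and are treated at one to two leaves with diluted emulsion dropped onto the water.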

lambsquarters [7] = assay: Test Example 5: herbicidal effect by foliage application, plastic box (Table 20, symbol O); format: in vivo, lambsquarters (Chenopodium album); conditions: foliage application; for O: lambsquarters, herbicidal effect (criteria 0-5): AAH 320 g/ha, evaluated three weeks after application; for O: lambsquarters, herbicidal effect grade: 320 g/ha, three weeks after application
Method in brief: as §2

velvetleaf = assay: Test Example 4: herbicidal effect by soil treatment (Table 19, symbol M); format: in vivo, velvetleaf (Abutilon theophrasti); conditions: amount of applied herbicide 320 g/ha
Method in brief: as §3

windgrass [8] = assay: Test Example 4: herbicidal effect by soil treatment (Table 19, symbol L); format: in vivo, windgrass (Apera spica-venti); conditions: amount of applied herbicide 320 g/ha
Method in brief: as §3

redroot pigweed = assay: Test Example 4: herbicidal effect by soil treatment (Table 19, symbol N); format: in vivo, redroot pigweed (Amaranthus retroflexus); conditions: amount of applied herbicide 320 g/ha
Method in brief: as §3

persian speedwell = assay: Test Example 5: herbicidal effect by foliage application, plastic box (Table 20, symbol R); format: in vivo, Persian speedwell (Veronica persica); conditions: foliage application; for R: persian speedwell, herbicidal effect (criteria 0-5): AAH 320 g/ha, evaluated three weeks after application; for R: persian speedwell, herbicidal effect grade: 320 g/ha, three weeks after application
Method in brief: as §2

SMILES | herbicidal effect on D: Chinese sprangletop (Chinese sprangletop) | herbicidal effect on E: rice flat sedge (rice flat sedge) | Herbicidal effect, C: oval-leafed pondweed (oval-leafed pondweed [1]) | F: southern crabgrass, herbicidal effect (criteria 0-5) (southern crabgrass [2]) | H: barnyard grass, herbicidal effect (criteria 0-5) (barnyard grass) | G: green foxtail, herbicidal effect (criteria 0-5) (green foxtail) | herbicidal effect, O: lambsquarters (lambsquarters [3]) | L: windgrass, herbicidal effect (criteria 0-5) (windgrass [4]) | herbicidal effect, F: southern crabgrass (southern crabgrass [5]) | herbicidal effect rating, C: oval-leafed pondweed (oval-leafed pondweed [6]) | herbicidal effect, M: velvetleaf (velvetleaf) | herbicidal effect, L: windgrass (windgrass [8]) | herbicidal effect, N: redroot pigweed (redroot pigweed) | F: southern crabgrass, herbicidal effect grade (southern crabgrass [2]) | H: barnyard grass, herbicidal effect grade (barnyard grass) | G: green foxtail, herbicidal effect grade (green foxtail) | L: windgrass, herbicidal effect grade (windgrass [4]) | P: chickweed, herbicidal effect grade (chickweed) | O: lambsquarters, herbicidal effect grade (lambsquarters [7]) | R: persian speedwell, herbicidal effect grade (persian speedwell) | also measured
Cc1nn(C)c(=O)c(-c2c(-c3ccc4c(c3)OC(F)(F)O4)sc3ccc(F)cc23)c1O [2-392] | 4 (Herbicidal rate of 70% or more and less than 90%) | 5 (Herbicidal rate of 90% or more (almost completely withered)) | 0 (Herbicidal rate of 5% or less (almost no effect)) | 4 (Herbicidal rate of 70% or more and less than 90%) | 5 (Herbicidal rate of 90% or more (almost completely withered)) | 3 (Herbicidal rate of 40% or more and less than 70%) | 3 (Herbicidal rate of 40% or more and less than 70%) | 0 (Herbicidal rate of 5% or less (almost no effect)) | 2 (Herbicidal rate of 20% or more and less than 40%) | 0 (Herbicidal rate of 5% or less (almost no effect)) | 1 (Herbicidal rate of 5% or more and less than 20%) | 1 (Herbicidal rate of 5% or more and less than 20%) | 3 (Herbicidal rate of 40% or more and less than 70%) |  |  |  |  |  |  |  | P: chickweed, herbicidal effect (criteria 0-5) (chickweed): 5 (Herbicidal rate of 90% or more (almost completely withered)); O: lambsquarters, herbicidal effect (criteria 0-5) (lambsquarters [7]): 5 (Herbicidal rate of 90% or more (almost completely withered)); R: persian speedwell, herbicidal effect (criteria 0-5) (persian speedwell): 5 (Herbicidal rate of 90% or more (almost completely withered))
COc1ccccc1-c1sc2cc(OCC3CC3(F)F)ccc2c1-c1c(O)c(C)nn(C)c1=O (centres unmarked) [3-131] |  |  | 5 (Herbicidal rate of 90% or more (almost completely withered)) |  |  |  |  |  |  | 5 (Herbicidal rate of 90% or more (almost completely withered)) |  |  |  | 5 (Herbicidal rate of 90% or more (almost completely withered)) | 5 (Herbicidal rate of 90% or more (almost completely withered)) | 5 (Herbicidal rate of 90% or more (almost completely withered)) | 5 (Herbicidal rate of 90% or more (almost completely withered)) | 5 (Herbicidal rate of 90% or more (almost completely withered)) | 5 (Herbicidal rate of 90% or more (almost completely withered)) | 5 (Herbicidal rate of 90% or more (almost completely withered)) | herbicidal effect on Chinese sprangletop (D) (Chinese sprangletop): 3 (Herbicidal rate of 40% or more and less than 70%); herbicidal effect on rice flat sedge (E) (rice flat sedge): 5 (Herbicidal rate of 90% or more (almost completely withered)); O: lambsquarters, herbicidal effect grade (lambsquarters [3]): 5 (Herbicidal rate of 90% or more (almost completely withered)); F: southern crabgrass, herbicidal effect grade (southern crabgrass [5]): 3 (Herbicidal rate of 40% or more and less than 70%); M: velvetleaf, herbicidal effect grade (velvetleaf): 3 (Herbicidal rate of 40% or more and less than 70%); L: windgrass, herbicidal effect grade (windgrass [8]): 3 (Herbicidal rate of 40% or more and less than 70%); N: redroot pigweed, herbicidal effect grade (redroot pigweed): 5 (Herbicidal rate of 90% or more (almost completely withered))
CCCCOc1ccc2c(-c3c(O)c(C)nn(C)c3=O)c(-c3ccccc3OC)sc2c1 [3-105] |  |  | 5 (Herbicidal rate of 90% or more (almost completely withered)) |  |  |  |  |  |  | 4 (Herbicidal rate of 70% or more and less than 90%) |  |  |  | 5 (Herbicidal rate of 90% or more (almost completely withered)) | 4 (Herbicidal rate of 70% or more and less than 90%) | 5 (Herbicidal rate of 90% or more (almost completely withered)) | 5 (Herbicidal rate of 90% or more (almost completely withered)) | 5 (Herbicidal rate of 90% or more (almost completely withered)) | 5 (Herbicidal rate of 90% or more (almost completely withered)) | 5 (Herbicidal rate of 90% or more (almost completely withered)) | herbicidal effect on Chinese sprangletop (D) (Chinese sprangletop): 5 (Herbicidal rate of 90% or more (almost completely withered)); herbicidal effect on rice flat sedge (E) (rice flat sedge): 4 (Herbicidal rate of 70% or more and less than 90%); O: lambsquarters, herbicidal effect grade (lambsquarters [3]): 3 (Herbicidal rate of 40% or more and less than 70%); F: southern crabgrass, herbicidal effect grade (southern crabgrass [5]): 0 (Herbicidal rate of 5% or less (almost no effect)); M: velvetleaf, herbicidal effect grade (velvetleaf): 0 (Herbicidal rate of 5% or less (almost no effect)); L: windgrass, herbicidal effect grade (windgrass [8]): 4 (Herbicidal rate of 70% or more and less than 90%); N: redroot pigweed, herbicidal effect grade (redroot pigweed): 4 (Herbicidal rate of 70% or more and less than 90%)
CCCC(=O)Oc1c(C)nn(C)c(=O)c1-c1c(-c2ccc(OC(C)C)cc2)sc2cc(F)ccc12 [3-020] | 3 (Herbicidal rate of 40% or more and less than 70%) | 5 (Herbicidal rate of 90% or more (almost completely withered)) | 2 (Herbicidal rate of 20% or more and less than 40%) |  |  |  | 0 (Herbicidal rate of 5% or less (almost no effect)) |  | 0 (Herbicidal rate of 5% or less (almost no effect)) | 2 (Herbicidal rate of 20% or more and less than 40%) | 0 (Herbicidal rate of 5% or less (almost no effect)) | 0 (Herbicidal rate of 5% or less (almost no effect)) | 4 (Herbicidal rate of 70% or more and less than 90%) | 0 (Herbicidal rate of 5% or less (almost no effect)) | 2 (Herbicidal rate of 20% or more and less than 40%) | 0 (Herbicidal rate of 5% or less (almost no effect)) | 0 (Herbicidal rate of 5% or less (almost no effect)) | 5 (Herbicidal rate of 90% or more (almost completely withered)) | 3 (Herbicidal rate of 40% or more and less than 70%) | 5 (Herbicidal rate of 90% or more (almost completely withered)) | 
CCCC(=O)Oc1c(C)nn(C)c(=O)c1-c1c(-c2ccc(Cl)s2)sc2ccc(F)cc12 [2-391] | 4 (Herbicidal rate of 70% or more and less than 90%) | 5 (Herbicidal rate of 90% or more (almost completely withered)) | 5 (Herbicidal rate of 90% or more (almost completely withered)) | 5 (Herbicidal rate of 90% or more (almost completely withered)) | 5 (Herbicidal rate of 90% or more (almost completely withered)) | 5 (Herbicidal rate of 90% or more (almost completely withered)) | 4 (Herbicidal rate of 70% or more and less than 90%) | 4 (Herbicidal rate of 70% or more and less than 90%) | 5 (Herbicidal rate of 90% or more (almost completely withered)) | 5 (Herbicidal rate of 90% or more (almost completely withered)) | 3 (Herbicidal rate of 40% or more and less than 70%) | 3 (Herbicidal rate of 40% or more and less than 70%) | 5 (Herbicidal rate of 90% or more (almost completely withered)) |  |  |  |  |  |  |  | P: chickweed, herbicidal effect (criteria 0-5) (chickweed): 5 (Herbicidal rate of 90% or more (almost completely withered)); O: lambsquarters, herbicidal effect (criteria 0-5) (lambsquarters [7]): 4 (Herbicidal rate of 70% or more and less than 90%); R: persian speedwell, herbicidal effect (criteria 0-5) (persian speedwell): 5 (Herbicidal rate of 90% or more (almost completely withered))
